The subject of data set [1] is clinical effects of ketamine, an NMDA receptor antagonist. Particulars: in vivo; cited from earlier work.
The subject of the next data set is catatonic features. The data set can be described thus: Bush-Francis Catatonia Rating Scale (BFCRS) assessment of patients before and after treatment. In kind it is in vivo, human. The source says: This assessment tool, in conjunction with clinical observation, can be used to identify the severity of catatonia and track improvements with medication adjustments. Studies discussed herein focused on subjects in both secure and nonsecure residential settings.

For data set [2] the following is noted: on average, subjects with schizophrenic disorders; cited from earlier work.

We go through five compounds from patent US9066949B2, “Compositions and methods for the treatment of catatonia” (priority 2011, dated 2015).

For the compound `O=C(CCCN1CCC(O)(c2ccc(Cl)cc2)CC1)c1ccc(F)cc1` [haloperidol], the “effect on the clinical effects of ketamine” value (shortened to “effect … of ketamine”) in data set [1] was “do not impact the effects of ketamine”.

Consider `Nc1nnc(-c2cccc(Cl)c2Cl)c(N)n1` [lamotrigine], for which the treatment response entry with catatonic features (10 out of 14 schizophrenic patients with catatonic features, non-secure settings, antipsychotic, lamotrigine, in some cases a benzodiazepine) is on record as “marked treatment response”. Moreover, in the data set with catatonic features (administration of lamotrigine alone), the “effect of lamotrigine alone on catatonic features” value is listed as “reduces catatonic features”. Also, the “effect on catatonic features at lowest dose” value in the data set on catatonic features (as little as 25 mg per day) is “meaningful reduction in catatonic features”. In addition, the “effect on catatonic features as the amount of lamotrigine was increased” value with catatonic features (in some instances) is “complete remission of catatonic features”. In addition, in the data set with catatonic features (of 20 confirmed cases of catatonia in secure residential settings, clozapine monotherapy with subsequent augmentation with lamotrigine), the subjects who responded was 11. Moreover, the “BFCRS score after treatment” value with catatonic features (one patient, reduced from 14, olanzapine plan later augmented with lamotrigine) was 0; with catatonic features (one subject, secure residential setting, dropped from 17, 3 weeks after starting the combination therapy), 11. In the data set on catatonic features (one subject, non-secure setting, original BFCRS score 31, poor responder to clozapine and lorazepam, after augmentation with lamotrigine), the “follow up BFCRS score” value was determined as 0. Also, the “response at full dosage” value in the data set on catatonic features (titrated to a full dosage of 200 mg twice per day, paired with an antipsychotic) is reported as “maximal responses”. The “effect … of ketamine” value in data set [1] is on record as “reverse the clinical effects of ketamine”.

Regarding `Cc1cc2c(s1)Nc1ccccc1N=C2N1CCN(C)CC1` [olanzapine, 2-methyl-4-(4-methyl-1-piperazinyl)-10H-thieno[2,3-b][1,5]benzodiazepine], the “effect … of ketamine” value in data set [1] is given as “reverse the clinical effects of ketamine”.

Consider `CN1CCN(C2=Nc3cc(Cl)ccc3Nc3ccccc32)CC1` [clozapine, 8-chloro-11-(4-methylpiperazin-1-yl)-5H-dibenzo[b,e][1,4]diazepine], for which, in data set [1], the “effect … of ketamine” value is given as “reverse the clinical effects of ketamine”. The “blood levels needed to achieve greater clinical efficacy” value in data set [2] was no less than 400 ng/dL.

For `Cc1nc2n(c(=O)c1CCN1CCC(c3noc4cc(F)ccc34)CC1)CCCC2` [risperidone], the “effect … of ketamine” value in data set [1] is listed as “do not impact the effects of ketamine”.
